Measured values from US20220280527A1, “TRACE AMINE ASSOCIATED RECEPTOR 1 AGONISTS AND PARTIAL AGONISTS FOR PAIN TREATMENT” (Purdue Pharma L.P., priority 2016, published 2022).

How the values were obtained:
Sprague-Dawley rats [1] = assay: Tail flick test (nociceptive pain); format: in vivo, rat; conditions: positive control, administered subcutaneously one hour prior to testing
hTAAR1 = target: T1, hTAAR1 (Homo sapiens, UniProt Q96RJ0); assay: hTAAR1 functional assay (cAMP); format: cell-based; conditions: for EC50: read-out: hTAAR1 EC50 (mean ± SEM (n)); for Emax: read-out: hTAAR1 Emax (mean ± SEM (n))
T1 construct: expressed in transfected cells; host or cells: recombinant cells
T1 sequence (Q96RJ0 1-339): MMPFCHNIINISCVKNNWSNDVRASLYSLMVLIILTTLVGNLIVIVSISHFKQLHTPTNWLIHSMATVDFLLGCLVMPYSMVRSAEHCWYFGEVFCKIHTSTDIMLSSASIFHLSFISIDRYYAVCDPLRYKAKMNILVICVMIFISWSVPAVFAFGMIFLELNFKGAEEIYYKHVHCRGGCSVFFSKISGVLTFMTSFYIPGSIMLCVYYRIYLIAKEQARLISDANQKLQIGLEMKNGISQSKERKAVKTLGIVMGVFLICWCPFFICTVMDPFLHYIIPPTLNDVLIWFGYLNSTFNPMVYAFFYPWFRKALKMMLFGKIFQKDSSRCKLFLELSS
Method: EC50 and Erna, values are reported for these compounds in Table 1.
A GPCR cAMP Modulation Assay can be used to determine whether a compound can be considered an agonist or antagonist.
cAMP Hunter cell lines were expanded from freezer stocks according to standard procedures. Cells were seeded into white walled, 384-well microplates in a total volume of 20 μL and incubated at 37° C. prior to testing. cAMP modulation was determined using a DiscoverX HitHunter cAMP XS+assay.
To determine whether a compound would be considered an agonist, cells were incubated with a test compound to induce a response. Media was aspirated from cells and replaced with 15 μL, 2:1 HBSS/10mM Hepes: cAMP XS+Ab reagent. Sample stocks were diluted immediately to generate a 4X sample in assay buffer. 5 μL of the 4X sample was added to cells and incubated at room temperature or 37° C. for 30 or 60 minutes. Final assay vehicle concentration was 1%.
After appropriate compound incubation, assay signal was generated by incubation with […] cAMP XS+ED/CL lysis cocktail for one hour followed, which was followed with room temperature incubation with […] cAMP XS+EA reagent for three hours. Microplates were read following signal generation with a PerkinElmer Envision^Tm instrument for chemiluminescent signal detection.
CBIS data analysis suite (ChemInnovation, CA) was used to analyze compound activity. RLU stands for relative light units.
For Gs agonist mode assays, percent activity was calculated using the following formula: […]

Sprague-Dawley rats [2] = assay: SNL-induced mechanical hyperalgesia model (paw pressure test, PWT); format: in vivo, rat; conditions: for minimum effective dose (MED): 1 hour prior to testing
Method: Surgery is performed under isoflurane/O, inhalation anesthesia. Following induction of anesthesia, a 3 centimeter incision is made and the left paraspinal muscles are separated from the spinous process at the L4-S2 levels. The L6 transverse process is carefully removed with a pair of small rongeurs to identify visually the L4-L6 spinal nerves. The left L5 (or L5 and L6) spinal nerve(s) is isolated and tightly ligated with silk thread. A complete hemostasis is confirmed and the wound is sutured using non-absorbable sutures, such as nylon sutures or stainless steel staples. Sham-rats undergo an identical surgical procedure except that the spinal nerve(s) is not manipulated. Following surgery animals are weighed, administered a subcutaneous (SC) injection of saline or ringers lactate, the wound area is dusted with antibiotic powder and they are kept on a warm pad until they recover from the anesthesia. Animals are then returned to their home cages until behavioral testing begins (i.e., 3-4 weeks post-surgery). The animals are assessed for their response to either a noxious or non-noxious stimuli, described below, prior to surgery (baseline), then 1, 3, and 5 hours after being administered a compound of the present disclosure 3 or 4 weeks post-surgery.
Hyperalgesia: The paw pressure assay can be used to assess mechanical hyperalgesia. Sensitivity to noxious mechanical stimuli is measured in animals using the paw pressure test to assess mechanical hyperalgesia. In rats, hind paw withdrawal thresholds (“PWT”), measured in grams, in response to a noxious mechanical stimulus are determined using an analgesymeter (Model 7200, commercially available from Ugo Basile of Italy), as described in C. Stein, “Unilateral Inflammation of the Hindpaw in Rats as a Model of Prolonged Noxious Stimulation: Alterations in Behavior and Nociceptive Thresholds,” Pharmacol. Biochem. and Behavior 31:451-455 (1988). The rat is gently restrained, its hindpaw is placed on a small round platform, and punctate pressure is applied to the dorsal surface of the hindpaw in a graded manner. The maximum weight that is applied to the hind paw is set at 250 grams and the end point is taken as complete withdrawal of the paw. PWT is determined once for each rat at each time point and either only the affected (ipsilateral; same side as the injury) rear paw is tested, or both the ipsilateral and contralateral (non-injured; opposite to the injury) rear paw are tested. Rats are tested prior to surgery or FCA administration to determine a baseline, or normal, PWT. Rats are tested again 3-4 weeks post-surgery or 24 hours post-FCA injection and at different times after (e.g., 1, 3, and 5 hours) compound or vehicle administration. A sham control is also implemented to determine the PWT of a rat having neither surgery nor compound administration.
Representative agonists and partial agonists of the present disclosure are tested in the spinal nerve ligation (“SNL”)-induced mechanical hyperalgesia model in male, Sprague-Dawley rats. Sensitivity to noxious mechanical stimuli is measured in animals using the paw pressure test to assess mechanical hyperalgesia. In rats, hind paw withdrawal thresholds (“PWT”), measured in grams, in response to a noxious mechanical stimulus are determined using an analgesymeter (Model 7200, commercially available from Ugo Basile of Italy), as described in C. Stein, “Unilateral Inflammation of the Hindpaw in Rats as a Model of Prolonged Noxious Stimulation: Alterations in Behavior and Nociceptive Thresholds,” Pharmacol. Biochem. & Behavior 31:451-455 (1988). Briefly, the rat's paw is placed on a small platform, and weight is applied in a graded manner up to a maximum of 250 grams. The endpoint is taken as the weight at which the paw is completely withdrawn. PWT is determined once for each rat at each time point. PWT is measured only in the injured paw. Rats are tested prior to surgery to determine a baseline, or normal, PWT. […]

1276 bp GRK5 KO rats = assay: SNL-induced mechanical hyperalgesia in 1276 bp GRK5 KO rats; format: in vivo, rat; conditions: IP dosing, achieved at 3 hours
Sprague-Dawley rats [3] = assay: Rotarod performance; format: in vivo, rat; conditions: IP at 30 mg/kg, 1 hour post dosing
Method: The Rotarod test is used to evaluate motor coordination, strength, and balance. The animals are placed on the rotating rod of the device. The time during which an animal can maintain itself on said bar at an accelerating speed of 5-40 rpm is recorded. 300 seconds is the assay cut-off. Data are analyzed by a two-way ANOVA using a Bonferroni Multiple Comparisons test. […] In the experiment, male, Sprague-Dawley rats, 211-241 g (n=10/group) were tested on an accelerating rotarod (AccuScan; manual 5-40 rpm).

[4] = tested on: 254 bp β-arresting KO rats; assay: SNL-induced mechanical hyperalgesia in 254 bp β-arresting KO rats; format: in vivo, rat; conditions: IP dosing, achieved at 1 hour

Structure (SMILES)	EC50 (hTAAR1)	Emax (hTAAR1)	also measured
CN1CC[C@]23c4c5ccc(O)c4O[C@H]2[C@@H](O)C=C[C@H]3[C@H]1C5 [morphine]			analgesic efficacy in the tail flick assay (Sprague-Dawley rats [1]): robust analgesic efficacy
NC1CCc2cc(NC(=O)c3ccnc(C(F)(F)F)c3)ccc2C1 (stereo not drawn)	163 nM		hTAAR1 Emax (mean ± SEM (n)) (hTAAR1): 85.8 ± 3.0% (2.8)
CCN(CC1COC(N)=N1)c1ccccc1 (stereo not drawn) [drawing 40]	92 ± 10.9 nM	81.7 ± 3%	
NC1=N[C@@H](CCc2ccc(NC(=O)c3ccc(Cl)cc3)cc2)CO1	8.53 ± 0.25 nM	42.7 ± 3%	
O=C(Nc1ccc(C2O[C@@H]3CN[C@H]2C3)cc1)c1ccc(Cl)cc1 (stereo partly drawn)	7210 nM		hTAAR1 Emax (mean ± SEM (n)) (hTAAR1): 29.7 ± 14.2% (3)
O=C(Nc1ccc(C2CCNC2)cc1)c1ccc(Cl)cn1 (stereo not drawn)	475 ± 50.1 nM	73.5 ± 3%	
Clc1ccc(Nc2ccc(C3CNCCO3)nc2)cc1 (stereo not drawn)	123 ± 9.99 nM	56.1 ± 7.5%	
O=C(Nc1ccc(C2CCNC2)cc1)Nc1ccc(Cl)cn1 (stereo not drawn)	54.5 ± 18.6 nM	80.9 ± 3%	
NC1=N[C@@H](c2ccc(Cl)c(Cl)c2)CO1		35.5 ± 3%	
CC(C)N(Cc1c[nH]cn1)c1ccc(Cl)cc1 [Compound 1, N-((1H-imidazol-4-yl)methyl)-4-chloro-N-isopropylaniline]			maximum reversal of SNL-induced mechanical hyperalgesia (Sprague-Dawley rats [2]; IP dosing, achieved at 3 hours): 41%; minimum effective dose (MED) (Sprague-Dawley rats [2]; PO dosing): < 3 mg/kg; maximum reversal of SNL-induced mechanical hyperalgesia (Sprague-Dawley rats [2]; PO dosing, achieved at 3 hours): 69%
Cc1c(F)cccc1[C@H]1COC(N)=N1	13.7 ± 5.01 nM	68.7 ± 3%	
NC1=NC(c2ccc(Cl)c(Cl)c2)CO1 (stereo not drawn) [Compound 3, 4-(3,4-dichlorophenyl)-4,5-dihydrooxazol-2-amine]			minimum effective dose (MED) (Sprague-Dawley rats [2]; IP dosing): 3 mg/kg; maximum reversal of SNL-induced mechanical hyperalgesia (Sprague-Dawley rats [2]; IP dosing, achieved at 3 hours): 56%; minimum effective dose (MED) (Sprague-Dawley rats [2]; PO dosing): 10 mg/kg; maximum reversal of SNL-induced mechanical hyperalgesia (Sprague-Dawley rats [2]; PO dosing, achieved at 1 hour): 23%
CC(C)n1nc(OCC(F)(F)F)cc1C(=O)Nc1ccc(C2OC3CN[C@H]2C3)cc1 (stereo partly drawn)	519 nM		hTAAR1 Emax (mean ± SEM (n)) (hTAAR1): 66.6 ± 14.9% (3)
CCN(CC1COC(N)=N1)c1ccccc1 (stereo not drawn) [Compound 2, 4-((ethyl(phenyl)amino)methyl)-4,5-dihydrooxazol-2-amine]			minimum effective dose (MED) (Sprague-Dawley rats [2]; IP dosing): < 1 mg/kg; maximum reversal of SNL-induced mechanical hyperalgesia (Sprague-Dawley rats [2]; IP dosing, achieved at 3 hours): 76%; minimum effective dose (MED) (Sprague-Dawley rats [2]; PO dosing): 10 mg/kg; maximum reversal of SNL-induced mechanical hyperalgesia (Sprague-Dawley rats [2]; PO dosing, achieved at 3 hours): 22%; maximum reversal of SNL-induced mechanical hyperalgesia (1276 bp GRK5 KO rats): 61%; rotarod performance (motor performance) (Sprague-Dawley rats [3]): produced deficits in motor performance; maximum reversal of SNL-induced mechanical hyperalgesia [4]: 43%
CCOc1cccc(NC(=O)c2ccc(N3CCCC3)c(C(F)(F)F)c2)c1	> 10000 nM	6.1 ± 3%	
